Results from US9586969B2, “Microbiocidal heterobicyclic derivatives” (Syngenta Participations AG, priority 2014, dated 2017).
Where two headings read alike, the source gives them in different places.

Tests used:
Type in all cases: cell-based
[1] = system: Botryotinia fuckeliana (Botrytis cinerea); assay: Botryotinia fuckeliana (Botrytis cinerea) / liquid culture (Gray mould); conditions: 72 h, 200 ppm, liquid culture, 24° C., inhibition of growth determined photometrically 3-4 days after application, vs untreated control, read-out: disease control
Gaeumannomyces graminis = Gaeumannomyces graminis / liquid culture (Take-all of cereals); conditions: 96 h, read-out: disease control
[2] = system: Glomerella lagenarium (Colletotrichum lagenarium); assay: Glomerella lagenarium (Colletotrichum lagenarium) / liquid culture (Anthracnose); conditions: Colletotrichum orbiculare; 200 ppm; liquid culture, 24° C., inhibition of growth measured photometrically 3-4 days after application; vs untreated control; read-out: disease control
[3] = system: Monographella nivalis (Microdochium nivale); assay: Monographella nivalis (Microdochium nivale) / liquid culture (Foot rot cereals); conditions: 96 h, 200 ppm, liquid culture, 24° C., inhibition of growth determined photometrically 4-5 days after application, vs untreated control, read-out: disease control
Fusarium culmorum = assay: microbe, parasite or virus in culture; conditions: 72 h, read-out: disease control
[4] = system: Mycosphaerella graminicola (Septoria tritici); assay: Mycosphaerella graminicola (Septoria tritici) / liquid culture (Septoria blotch); conditions: Zymoseptoria tritici, 96 h, read-out: disease control
[5] = liquid culture, 24° C., inhibition of growth determined photometrically 4-5 days after application, vs untreated control

Measured: inhibition of growth at 200 ppm

CC1(C)N=C(c2cnn3cccc3c2)c2cccc(F)c2C1(C)C [E 1]
≥ 80%: [1] | Gaeumannomyces graminis; [5] | [2] | [3]

CC1(C)N=C(c2cnn3c(F)ccc3c2)c2cccc(F)c2C1(C)C [E 2]
≥ 80%: [1] | Fusarium culmorum | Gaeumannomyces graminis; [5] | [2] | [3]

CC1(C)Cc2c(Br)cccc2C(c2cnn3cccc3c2)=N1 [E 5]
≥ 80%: [1] | Fusarium culmorum | [2] | [3] | [4]; [5]

CC1(C)Cc2c(F)cccc2C(c2cnn3c(F)cc(Br)c3c2)=N1 [E 15]
≥ 80%: [1] | Gaeumannomyces graminis; [5] | [2] | [3] | [4]; [5]

CC1(C)Cc2c(F)cccc2C(c2cnn3c(Br)ccc3c2)=N1 [E 17]
≥ 80%: [1] | Gaeumannomyces graminis; [5] | [2] | [3]

Cc1cc(F)n2ncc(C3=NC(C)(C)Cc4c(F)cccc43)cc12 [E 18]
≥ 80%: [1] | Gaeumannomyces graminis; [5] | [2] | [3] | [4]; [5]

CC1(C)Cc2ccccc2C(c2cnn3c(F)ccc3c2)N1 (stereo not shown) [E 21]
≥ 80%: [1] | Gaeumannomyces graminis; [5] | [2]

CC1(C)N=C(c2cnn3c(F)cc(I)c3c2)c2cccc(F)c2C1(C)C [E 24]
≥ 80%: [1] | Fusarium culmorum | [2] | [3] | [4]; [5]

CC1(C)Cc2c(I)cccc2C(c2cnn3cccc3c2)=N1 [E 29]
≥ 80%: [1] | Fusarium culmorum | [2] | [3] | [4]; [5]

CC1(C)Cc2c(Oc3ccccn3)cccc2C(c2cnn3cccc3c2)=N1 [E 31]
≥ 80%: [1] | Gaeumannomyces graminis; [5]

CC1(C)Cc2c(cccc2C(F)F)C(c2cnn3cccc3c2)=N1 [E 32]
≥ 80%: [1] | Fusarium culmorum | [2] | [3]

CC1(C)N=C(c2cnn3c(I)cc(I)c3c2)c2cccc(F)c2C1(C)C [E 38]
≥ 80%: [1] | [3] | [4]; [5]

CC1(C)N=C(c2cnn3c(Br)ccc3c2)c2cccc(F)c2C1(C)C [E 42]
≥ 80%: [1] | Fusarium culmorum | Gaeumannomyces graminis; [5] | [2] | [3]

CC1(C)N=C(c2cnn3c(C#N)ccc3c2)c2cccc(F)c2C1(C)C [E 52]
≥ 80%: [1] | Fusarium culmorum | [2] | [3]

Cc1ccc2cc(C3=NC(C)(C)C(C)(C)c4c(F)cccc43)cnn12 [E 53]
≥ 80%: [1] | Fusarium culmorum | [2] | [3]

C#CCOc1cccc2c1CC(C)(C)N=C2c1cnn2cccc2c1 [E 54]
≥ 80%: [1] | Gaeumannomyces graminis; [5]

CC1(C)Cc2c(Oc3ccccc3)cccc2C(c2cnn3cccc3c2)=N1 [E 60]
≥ 80%: [1] | Fusarium culmorum | [2] | [3] | [4]; [5]

CC1(C)N=C(c2cnn3cccc3c2)c2ccccc2C1(F)F [E 71]
≥ 80%: [1] | Fusarium culmorum | [2] | [3]

CC1(C)N=C(c2cnn3cccc3c2)c2ccc(F)cc2C1(C)C [E 72]
≥ 80%: [1] | Fusarium culmorum | [2] | [3]

CC1(C)N=C(c2cnn3cccc3c2)c2ccc(F)c(F)c2C1(C)C [E 73]
≥ 80%: [1] | Fusarium culmorum | [2] | [3]

CC1(C)N=C(c2cnn3cc(F)cc3c2)c2cccc(F)c2C1(C)C [E 74]
≥ 80%: [1] | Fusarium culmorum | [2] | [3]

CC1(C)N=C(c2cnn3c(F)c(F)cc3c2)c2cccc(F)c2C1(C)C [E 75]
≥ 80%: [1] | Fusarium culmorum | Gaeumannomyces graminis; [5] | [2]

CC1(C)N=C(c2cnn3c(Cl)ccc3c2)c2cccc(F)c2C1(C)C [E 76]
≥ 80%: Fusarium culmorum | Gaeumannomyces graminis | [4]

Cc1nn2cccc2cc1C1=NC(C)(C)C(C)(C)c2c1ccc(F)c2F [E 80]
≥ 80%: [1] | Fusarium culmorum | [2] | [3]

Cc1nn2c(Br)ccc2cc1C1=NC(C)(C)C(C)(C)c2c(F)cccc21 [E 84]
≥ 80%: [1] | Fusarium culmorum | Gaeumannomyces graminis; [5] | [2] | [3]

Cc1cnc2cc(C3=NC(C)(C)C(F)(F)c4c(F)cccc43)cnn12 [E 90]
≥ 80%: [1] | Fusarium culmorum | [2] | [3]
